Data set [1] deals with lenti-GFP vector viral particles. Put plainly: Lentiviral vector (lenti-GFP) transduction of cells, flow cytometry. Conditions: B11-20AA plus polybrene, 3 days post infection, viable cells (low PI).
Experimental: Viral transduction of cells was measured at 3 days post infection by flow cytometry. (A) uninfected cells control. (B) Cells were infected with a lenti-GFP vector viral particles. […] Transduction efficiency was measured by the percentage of GFP+ cells. PI,_propidium iodide, was added before flow cytometry for cytotoxicity control (FL3). GFP+ cells were counted only when the cells are viable (low PI staining).
Data set [2] deals with Lenti-GFP virion particles. Put plainly: Lentiviral virion infectivity after virion incorporation of actin-based peptide. Conditions: virions first incubated with peptide to allow virion incorporation; equal amount of virions.
Experimental: (A) Uninfected cells control. (B) Lenti-GFP virion particles were used to directly infect target cells. […] An equal amount of virion particles in (B) and (C) were used for infection. Virion infectivity was measured by the percentage of GFP+ cells.
Data set [3] concerns Influenza A virus (IAV). As to conditions: cited from earlier work.
In data set [4] the test system is Influenza A virus (IAV). Conditions: IAV-infected mice vs solvent-treated control; cited from earlier work.
Data set [5] deals with HIV-1. As to conditions: CD4 T lymphocytes; cited from earlier work.
In the next data set the test system is HEK293T cells. The data set can be described thus: Liposome transfection of GFP-expression vector DNA with actin-based peptide. It counts as cell-based. As to conditions: Lenti-GFP DNA + liposome + peptide, 48 hours post transfection. On the procedure:
FIG. 6: Example of combination of actin-based peptide with liposome to deliver nucleic acids into cells. HEK293T cells were transfected with a GFP-expression vector DNA (Lenti-GFP) in complex with liposome (DNA+Lipo) or with liposome and an actin-based peptide (N9-A20) (DNA+Lipo+N9). Following transfection, cells were quantified for GFP expression at 48 hours post transfection by flow cytometry.

The subject of data set [6] is Influenza A virus (IAV). As to conditions: MDCK cells; cited from earlier work.
Data set [7] relates to HIV-1. As to conditions: cited from earlier work.
In data set [8] the test system is Influenza A virus (IAV). As to conditions: cited from earlier work. This is another data set of the same source.
Data set [9] deals with Murine leukemia virus (MLV), Avian leukosis virus (ALV), and Human immunodeficiency virus (HIV). As to conditions: HEK293T cells transfected with viral receptors; cited from earlier work.
The next data set concerns Measles virus (MeV). As to conditions: cited from earlier work.
Data set [10] relates to HIV-1. Conditions: cited from earlier work. The source holds these as a separate data set.
The next data set deals with CD144 (VE-cadherin). The data set can be described thus: Surface expression of CD144 on H9 lymphocytes, flow cytometry. The data set is classed as cell-based, Human. Conditions: H9 lymphocytes treated 40 minutes. How it is done:
(§1) FIG. 7: Example of actin-based peptide to enhance surface expression of multiple cellular receptors including CD325 (N-cadherin), CD144 (VE-cadherin), and CD324 (E-cadherin), which are surface molecule for cell-cell and cell-extracellular matrix binding and adhesion. (A) Human H9 lymphocyte (derivative of HutT 78 cell, from ATCC) were not treated or treated with an actin-based peptide (N7-20AA) for 40 minutes. Cells were stained on ice with PerCy-Cy5.5-labeled mouse anti-human CD325 antibody. Surface expression of CD325 before and after N7-20AA was quantified by flow cytometer. […] (B) Human H9 lymphocyte were not treated or treated with an actin-based peptide (N7-20AA) for 40 minutes. Cells were stained on ice with FITC-labeled mouse anti-human CD144 antibody. Surface expression of CD144 before and after N7-20AA was quantified by flow cytometer. […] (C) Human H9 lymphocyte were not treated or treated with an actin-based peptide (N7-20AA) for 40 minutes. Cells were stained on ice with PE-labeled mouse anti-human CD324 antibody. Surface expression of CD324 before and after N7-20A was quantified by flow cytometer.
In general terms: In flow cytometry, cells or beads pass a laser one at a time.

Another data set relates to CD325 (N-cadherin). The data set can be described thus: Surface expression of CD325 on H9 lymphocytes, flow cytometry. It counts as cell-based, Human. Conditions: H9 lymphocytes treated 40 minutes. How it is done:
as §1

The test system of another data set is CD324 (E-cadherin). Put plainly: Surface expression of CD324 on H9 lymphocytes, flow cytometry. It counts as cell-based, Human. Conditions: H9 lymphocytes treated 40 minutes. How it is done:
as §1

As for “RRRRRRRR(G/A)0-20DIKEKLCYVALDFEQEMATA [B11-20AA]”, in [1], the “Transduction efficiency (percentage of GFP+ cells)” value is “Enhancement of lentiviral vector transduction”. In addition, the “Virion infectivity (percentage of GFP+ cells)” value in [2] was “Enhancement of lentiviral virion infectivity”.

In general, IC50 refers to the midpoint of a concentration-inhibition curve. For the molecule `CCN(CC)CCCC(C)Nc1nc(C)cc(Nc2ccc3nc(C)cc(N)c3c2)n1` (stereo not drawn) [NSC23766], in the data set on Influenza A virus (IAV) [3] (A549 cells, read-out: IC50, reduction of viral replication), the concentration for half-maximal inhibition (IC50) was 22 µM. In addition, the Viral protein expression result in the data set with Influenza A virus (IAV) [3] was “reduced viral protein expression”. In the data set on Influenza A virus (IAV) [4], the Body weights entry was “increased body weights”, the Survivability entry is on record as “higher survivability” and the “Titer of IAV in lung tissue” value is “reduce titer of IAV in lung tissue”.

In the case of `O=C1CSC(c2cccc(Br)c2)N1c1cc(Cl)ccc1O` (stereo not drawn) [CK-548], in the data set with HIV-1 [5], the “CD4 T cell activation and cytotoxicity at effective dosages” value is on record as “did not affect CD4 T cell activation or induce cytotoxicity”; the HIV-1 replication entry is “dramatically reduced HIV-1 replication”.

For “RRRRRRRR(G/A)0-20HTVPIYEGYALPHAILRLDL [N9-A20]”, the “Delivery of nucleic acids into cells (GFP expression)” value in the data set on HEK293T cells is recorded as “enhances delivery of nucleic acids into cells”.

Consider `C=C1[C@@H](C)[C@H]2[C@H](Cc3ccccc3)NC(=O)[C@]23[C@H](OC(C)=O)/C=C/[C@@](C)(O)C(=O)[C@@H](C)C/C=C/[C@H]3[C@@H]1O` [cytochalasin D], for which, in the data set with Influenza A virus (IAV) [6], the “Distribution of plasma membrane HA, lipid rafts and actin” value (“Distribution of plasma membrane HA” below) is reported as “dramatically redistributed”. Also, the “Accumulation of early and late reverse transcription products” value with HIV-1 [7] (pretreating cells, not 2 hours post-infection) was “reduced the accumulation of early and late reverse transcription products”. In addition, the “Reduction of nuclear accumulation of late RT products” value in the data set with HIV-1 [7] (pretreatment) is listed as 25 fold. Moreover, in the data set on Influenza A virus (IAV) [8], the “Titers of filamentous and spherical virions” value is listed as “dramatically abrogated the titers of the filamentous, but not spherical, virions”. Also, the Virus surfing entry in [9] was “eliminated virus surfing”. Also, in the data set with Measles virus (MeV), the “Actin and H co-immunoprecipitation with M protein” value is given as “dramatically reduced actin co-immunoprecipitating with M, while enhancing H co-immunoprecipitation”; the “Co-transport of M-RNP to the cell surface” value is reported as “reduces co-transport of M-RNP to the cell surface”; the “Rate of cell-cell fusion” value was “enhanced the rate of cell-cell fusion”.

For the molecule `C/C1=C\[C@H](C)C[C@H](C)OC(=O)C[C@H](c2ccc(O)cc2)NC(=O)[C@@H](Cc2c(Br)[nH]c3ccccc23)N(C)C(=O)[C@H](C)NC(=O)[C@@H](C)C1` [jasplakinolide], the “Distribution of plasma membrane HA” value with Influenza A virus (IAV) [6] was “dramatically redistributed”. In the data set on Measles virus (MeV), the “Co-transport of M-RNP to the cell surface” value is given as “not affecting M-RNP co-transport” and the Free-virus production result is given as “blocked free-virus production”.

For the molecule `C/C1=C/C(=O)O[C@@H]2C[C@@H](CC[C@H](C)/C=C\C=C\CC1)O[C@@](O)([C@@H]1CSC(=O)N1)C2` [latrunculin A], the “Distribution of plasma membrane HA” value in the data set with Influenza A virus (IAV) [6] was “dramatically redistributed”. Moreover, the “gag mRNA localisation” value in the data set with HIV-1 [10] is recorded as “caused retention of gag mRNA in the nucleus”.

Regarding `Cc1ccc2c(c1)C(=O)C1(O)CCN(c3ccccc3)C1=N2` (stereo not drawn) [blebbistatin], the Virus surfing result in data set [9] is on record as “eliminated virus surfing”.

Consider “RRRRRRRR(G/A)0-20QIMFETFNTPAMYVAIQAVL [N7-20AA]”, for which, in the data set with CD144 (VE-cadherin), the “Surface expression of CD144” value was “up-regulation of surface expression of CD144”. Besides, the “Surface expression of CD325” value in the data set with CD325 (N-cadherin) is “up-regulation of surface expression of CD325”. Besides, the “Surface expression of CD324” value in the data set on CD324 (E-cadherin) was “up-regulation of surface expression of CD324”.

The values are drawn from patent US20240108687A1, “COMPOSITIONS AND METHODS FOR USING COMBINATIONS OF ACTIN-BASED PEPTIDES TO MODULATE CELLULAR BIOACTIVITY” (Virongy L.L.C., priority 2021, published 2024).
